Here are results for six compounds from patent publication US20260008768A1, “UREA DERIVATIVES FOR INHIBITING NLRP3 AND USES THEREOF” (VENTUS THERAPEUTICS U.S., INC., priority 2023, published 2026).

pIC50: −log10 of the molar value. Where only a bound is given, the exact number is not on record here.

In assay [1] the target is T1, human NLRP3 (Homo sapiens, UniProt Q96P20). As to the kind of experiment: Scintillation Proximity (SPA) NLRP3 Assay, displacement of 3H-MCC950. It counts as binding. As to conditions: for pIC50: displacement of 3H-MCC950 from human NLRP3. The method, boiled down:
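Human NLRP3 (350 nM) preincubated 15 min at RT with compound (5% DMSO final) in HEPES pH 7.5 buffer with 100 μM ADP, then 125 nM 3H-MCC950 added for 60 min. Copper PVT SPA beads added; counts read 6 h later. Specific binding = signal minus no-protein wells, duplicates averaged; IC50 reported.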
For orientation: SPA uses beads or plates that emit light when radiolabelled molecules are held near them.

Assay [2] addresses T1, human NLRP3. Put plainly: Human Whole Blood (hWB) NLRP3 Assay (LPS/ATP, IL-1β). It is filed as cell-based. Further details: host or cells: human whole blood from healthy volunteers (A3). How it is done:
Human whole blood is drawn from healthy volunteers after obtaining written informed consent. Heparin lithium coated tubes are used to collect blood from volunteers. Blood samples are distributed on 96 well plates using 90 μl per well.
Priming procedure: Priming is performed by adding 5 μl of LPS (O26:B6; Sigma L-2654) at a final concentration of 1 μg/ml for 4.5 hours in a humidified incubator with 37° C., 5% CO2. Thirty minutes prior to NLRP3 activation, 5 μl of a 20× compound solution or vehicle (2% dimethylsulfoxide (DMSO)) is added to each well and plates were incubated on a shaker (450 rpm) in a humidified incubator with 37° C., 5% CO2.
Alternative priming procedure: Thirty minutes prior to LPS priming, 5 μl of a 20× compound solution or vehicle (2% dimethylsulfoxide (DMSO)) is added to each well and plates were incubated on a shaker (450 rpm) in a humidified incubator with 37° C., 5% CO2. Priming is performed by adding 5 μl of LPS (O26:B6; Sigma L-2654) at a final concentration of 1 μg/ml for 5 hours in a humidified incubator with 37° C., 5% CO2.
Activation is then performed by adding 3.3 μl of a 31×ATP solution per well. At the end of the 30 minutes stimulation, the plates are centrifuged (800 g, 10 min, room temperature) and the plasma from each well is frozen at −80° C. IL-1β levels in the supernatant were analyzed using a mesoscale discovery assay (MSD K151TUK) according to the manufacturers' instructions.
There is no detectable difference in assay results using the priming procedure versus the alternative priming procedure.
hWB NLRP3 IC50 assay results, as a measurement of whole blood potency, are provided in Table B. “A” activity=<1 uM; “B” activity=1-2 uM; “C” activity=>2-3 uM; “D” activity=>3 uM.

The target of assay [3] is T1, human NLRP3. As to the kind of experiment: Human PBMC NLRP3 Assay (LPS priming, ATP stimulation, cytokine measurement). It is filed as cell-based. On the set-up: host or cells: human PBMCs (A2); human whole blood from healthy volunteers (A3). As to conditions: human PBMC, LPS + ATP. The method, boiled down:
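Human PBMCs (5×10^4/well) primed with 100 ng/ml LPS for 4 h, then given compound for 30 min and stimulated with 5 mM ATP for 1 h at 37° C. Supernatant cytokines measured on the Mesoscale platform to give IC50. For TNFα selectivity, compound was added 30 min before LPS priming.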

T1 sequence (Q96P20 whole entry): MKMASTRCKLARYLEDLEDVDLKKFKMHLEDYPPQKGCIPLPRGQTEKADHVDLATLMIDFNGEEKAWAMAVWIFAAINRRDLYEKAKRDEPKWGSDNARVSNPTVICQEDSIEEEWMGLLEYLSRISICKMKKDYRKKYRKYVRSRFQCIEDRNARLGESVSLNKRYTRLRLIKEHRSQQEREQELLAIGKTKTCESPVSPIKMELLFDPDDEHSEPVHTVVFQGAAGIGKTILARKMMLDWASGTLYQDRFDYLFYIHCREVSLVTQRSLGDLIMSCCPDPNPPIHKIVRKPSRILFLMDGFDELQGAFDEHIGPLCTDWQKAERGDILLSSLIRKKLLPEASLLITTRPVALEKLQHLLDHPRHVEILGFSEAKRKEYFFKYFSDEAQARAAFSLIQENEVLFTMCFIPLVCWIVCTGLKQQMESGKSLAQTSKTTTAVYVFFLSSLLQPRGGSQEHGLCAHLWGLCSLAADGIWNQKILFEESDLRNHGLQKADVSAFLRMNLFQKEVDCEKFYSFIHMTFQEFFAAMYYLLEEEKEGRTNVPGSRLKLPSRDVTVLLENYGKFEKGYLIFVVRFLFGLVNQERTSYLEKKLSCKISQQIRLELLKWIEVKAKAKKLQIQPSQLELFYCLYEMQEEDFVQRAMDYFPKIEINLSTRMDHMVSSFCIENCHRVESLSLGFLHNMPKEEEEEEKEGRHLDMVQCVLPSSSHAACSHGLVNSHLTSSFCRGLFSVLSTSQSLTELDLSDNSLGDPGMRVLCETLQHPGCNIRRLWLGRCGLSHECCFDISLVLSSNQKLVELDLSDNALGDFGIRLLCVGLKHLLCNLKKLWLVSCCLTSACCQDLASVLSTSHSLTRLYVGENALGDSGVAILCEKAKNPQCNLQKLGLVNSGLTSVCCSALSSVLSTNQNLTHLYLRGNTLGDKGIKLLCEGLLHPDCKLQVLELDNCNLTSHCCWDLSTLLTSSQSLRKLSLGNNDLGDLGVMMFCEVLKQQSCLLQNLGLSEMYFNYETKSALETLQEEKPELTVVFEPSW

In general, pIC50 refers to the IC50 on a negative log10 scale, so that one unit is a factor of ten. For `C[C@@H]1CCN(c2nnn[nH]2)C[C@H](NC(=O)N(C)c2ccc(Cl)cc2F)C1` (single isomer, unassigned) [5A*], the pIC50 is > 6.00 at human NLRP3 [1] (Table B, activity class); 7.15 on human NLRP3 [1] (Table C); > 6.00 on human NLRP3 [2] (Table B, activity class); 7.44 at human NLRP3 [2] (Table C); > 8.00 on human NLRP3 [3] (Table B, activity class); 8.40 on human NLRP3 [3] (Table C). In addition, the “fold improvement in binding activity (SPA IC50)” value on human NLRP3 [1] (relative to Compound 27A*) is given as > 19 fold.

For the compound `C[C@@H]1C[C@@H](NC(=O)N(C)c2ccc(OC(F)F)c(OC(F)F)c2)[C@H]2CC[C@@H]1N2c1nnn[nH]1` (single isomer, unassigned) [64A*], the pIC50 is > 6.00 at human NLRP3 [1] (Table B, activity class); > 6.00 against human NLRP3 [2] (Table B, activity class); 7.00 to 8.00 at human NLRP3 [3] (Table B, activity class).

Take `C[C@@H]1C[C@@H](NC(=O)N(C)c2ccc(OC(F)(F)F)c(F)c2F)[C@H]2CC[C@@H]1N2c1nnn[nH]1` (single isomer, unassigned) [59A*]: the pIC50 is > 6.00 on human NLRP3 [1] (Table B, activity class); 5.52 to 5.70 on human NLRP3 [2] (Table B, activity class); 6.30 to 7.00 at human NLRP3 [3] (Table B, activity class).

`C[C@@H]1C[C@@H](NC(=O)N(C)c2c(F)cc(OC(F)(F)F)cc2F)[C@H]2CC[C@@H]1N2c1nnn[nH]1` (single isomer, unassigned) [62A*]: the pIC50 on human NLRP3 [1] (Table B, activity class) was > 6.00; at human NLRP3 [2] (Table B, activity class), > 6.00; at human NLRP3 [3] (Table B, activity class) it was 7.00 to 8.00.

Turning to `C[C@@H]1CCN(c2nnn[nH]2)C[C@H](NC(=O)N(C)c2c(F)cc(OC(F)(F)F)cc2F)C1` (single isomer, unassigned) [41A*], the pIC50 at human NLRP3 [1] (Table B, activity class) is > 6.00; on human NLRP3 [2] (Table B, activity class), > 6.00; on human NLRP3 [3] (Table B, activity class), > 8.00.

As for `C[C@@H]1CCN(c2nnn[nH]2)C[C@H](NC(=O)N(C)c2ccc(Cl)c(F)c2)C1` (single isomer, unassigned) [12A*], the pIC50 at human NLRP3 [1] (Table B, activity class) was > 6.00; at human NLRP3 [2] (Table B, activity class) it was 5.52 to 5.70; on human NLRP3 [3] (Table B, activity class), 7.00 to 8.00.
